Laboratory results published in US6153768A, “Benzopyran derivatives” (C & C Research Laboratories, priority 1996, dated 2000).

What was measured:
[1] = tested on: estrogen receptor; conditions: literature, in words; cited from earlier work
[2] = tested on: MCF-7 cells; experiment: Cell growth inhibiting activity (MTT, 0.1 nM estradiol, 7 days); format: cell-based; conditions: Homo sapiens, MCF7, 168 h, MCF-7, 0.1 nM estradiol
Experimental: In this experiment, the cell growth inhibiting activity was determined by using the compounds of Examples 6, 7, 12 and 46 as the test compound and the known anti-estrogenic compound ZM189154 having the following structure (see, EP0124369 B1) as the control compound, according to the method described hereinafter. [drawing 72]
One day before drug administration, incubated MCF-7 cells were plated in 96-well plate in the concentration of 5×10^3 cells per well. After the 96-well plate was incubated for one day, 0.1 nM of estradiol and the test compound in the given concentration were added to each well. The plate was incubated for 7 days at 37° C. and then MTT solution (Sigma) was added to each well in the amount of 15 μl and allowed to react for 2 hours at 37° C. After the reaction is completed, the solubilizing/stopping solution (constitution: SDS, acetic acid, N,N-dimethylformamide) was added to each well in the amount of 100 μl. Then, the absorption for each well at 570 nm was measured by means of a plate reader. IC50 value for inhibiting cell growth of 50% was calculated from the results as measured and described in the following Table 1.

[3] = tested on: increase of uterine weight by estradiol in ovariectomized mice; experiment: Anti-estrogenic activity, inhibition of uterine weight increase, subcutaneous administration; format: in vivo, mice (ICR); conditions: s.c.; for Inhibition (%) of increase of uterine weight: 30 μg/mouse, 3 days; for inhibition of increase of uterine weight compared to ZM189154: in words
Experimental: Anti-estrogenic activity of the test compound by subcutaneous administration was determined according to the method described hereinafter. In this experiment, the compounds of Examples 6, 7, 12 and 46 were used as the test compound and the known anti-estrogenic compound ZM189154 was used as the control compound as in Experiment 1.
In this experiment, the test compound or the control compound was dissolved in peanut oil (Sigma) and injected subcutaneously for 3 days, once a day. After 24 hours from the last injection, the test animal was sacrificed and uterus was removed and weighed.

[4] = tested on: increase of uterine weight by estradiol in ovariectomized mice; experiment: Anti-estrogenic activity, inhibition of uterine weight increase, oral administration; format: in vivo, mice (ICR); conditions: 10 mg/kg, p.o., 3 days
Experimental: Oral anti-estrogenic activity of the test compound was determined according to the method described hereinafter. In this experiment, the compound of Example 7 was used as the test compound and the known anti-estrogenic compound ZM189154 was used as the control compound as in Experiment 2.
In this experiment, the test compound or the control compound was suspended in 5% arabic gum solution and orally administered for 3 days, once a day. After 24 hours from the last administration, the test animal was sacrificed and uterus was removed and weighed.

[5] = tested on: mouse femur; experiment: Effect on bone mineral density of mouse femur; format: in vivo, BALB/c nude mouse (female); conditions: for whole BMD / proximal BMD / distal BMD: mean ± SE, s.c. once a week, 6 weeks; for whole BMD: control 35.63 ± 0.97; for proximal BMD: control 35.95 ± 1.50; for distal BMD: control 37.80 ± 1.75
Experimental: The effect of the compound of the present invention on bone mineral density of mouse femur was determined according to the method described hereinafter. In this experiment, the compounds of Example 7 was used as the test compound and the known anti-estrogenic compound ZM189154 was used as the control compound as in Experiment 2.
MCF-7 cells (ATCC) as human breast cancer cell were transplanted subcutaneously into BALB/c nude mouse (female, 6 weeks) and then estradiol was percutaneously injected twice a week in an amount of 0.01 mg/mouse, for 3 weeks. Thereafter, estradiol was administered once a week in the same amount and the test compound or the control compound dissolved in 10% ethanol-90% peanut oil was administered. The control group received only vehicle. The test or control compound was administered subcutaneously in an amount of […], once a week. After the administration of the test compound for 6 weeks, left femur was excised and soft tissue was removed therefrom. Then the bone mineral density (BMD) was measured in a SPA mode by means of dual energy X-ray absorptiometry DCS-600 (Aloka). For interpretation, femur was divided into ten in the direction of long axis and the mean […] of 3, 4 and 3 fragments from proximal position were calculated. Each of the fragments was represented as proximal, middle or distal, respectively.

IC50 [2] | SMILES | Inhibition (%) of increase of uterine weight [3] | inhibition of increase of uterine weight compared to ZM189154 [3] | other results
277 nM | C[C@@]1(c2ccc(O)cc2)COc2cc(O)ccc2[C@@H]1CCCCCCCCCSCCCC(F)(F)C(F)(F)F (racemic) [Example 6, (3RS,4RS)-7-hydroxy-3-(4-hydroxyphenyl)-3-methyl-4-[9-(4,4,5,5,5-pentafluoropentylthio)nonyl]-2,3-dihydro-4H-benzopyran] | 83.1% | rather superior to that of ZM189154 | –
54.8 nM | C[C@@]1(c2ccc(O)cc2)COc2cc(O)ccc2[C@@H]1CCCCCCCCC[S+]([O-])CCCC(F)(F)C(F)(F)F (mixture of isomers) [Example 7, (3RS,4RS)-7-hydroxy-3-(4-hydroxyphenyl)-3-methyl-4-[9-(4,4,5,5,5-pentafluoropentylsulfinyl)nonyl]-2,3-dihydro-4H-benzopyran] | 87.0% | rather superior to that of ZM189154 | Inhibition (%) of increase of uterine weight [4]: 68.1%; whole BMD [5]: 37.23 ± 1.41 mg/cm^2; proximal BMD [5]: 35.05 ± 2.05 mg/cm^2; distal BMD [5]: 36.29 ± 1.46 mg/cm^2
524 nM | C[C@@]1(c2ccc(O)cc2)COc2cc(O)ccc2[C@@H]1CCCCCCCCSCCCC(F)(F)C(F)(F)F (racemic) [Example 12, (3RS,4RS)-7-hydroxy-3-(4-hydroxyphenyl)-3-methyl-4-[8-(4,4,5,5,5-pentafluoropentylthio)octyl]-2,3-dihydro-4H-benzopyran] | 74.8% | rather superior to that of ZM189154 | –
33 nM | C[C@@]1(c2ccc(O)cc2)COc2cc(O)ccc2[C@@H]1CCCCCCCCC[S+]([O-])CCN1CCCCC1 (mixture of isomers) [Example 46, (3RS,4RS)-7-hydroxy-3-(4-hydroxyphenyl)-3-methyl-4-[9-((2-piperidinoethyl)sulfinyl)nonyl]-2,3-dihydro-4H-benzopyran] | 16.7% | rather superior to that of ZM189154 | –
77 nM | CC1(c2ccc(O)cc2)CCc2cc(O)ccc2C1CCCCCCCCC[S+]([O-])CCCC(F)(F)C(F)(F)F (stereo not shown) [ZM189154] | 73.8% | – | Inhibition (%) of increase of uterine weight [4]: 41.7%; whole BMD [5]: 34.57 ± 1.40 mg/cm^2; proximal BMD [5]: 34.19 ± 2.19 mg/cm^2; distal BMD [5]: 32.80 ± 1.30 mg/cm^2; decrease of BMD at distal femur ([5]; vs control): 13.3%; decrease of BMD at proximal femur ([5]; vs control): 4.9%; decrease of BMD at whole femur ([5]; vs control): 3.0%

Second part, the compound before the results:

SMILES | IC50 [2] | Inhibition (%) of increase of uterine weight [3] | inhibition of increase of uterine weight compared to ZM189154 [3] | other results
C[C@]12CC[C@@H]3c4ccc(O)cc4C[C@@H](CCCCCCCCC[S+]([O-])CCCC(F)(F)C(F)(F)F)[C@H]3[C@@H]1CC[C@@H]2O (stereo partly shown) | – | – | – | estrogenic activity (agonistic effect) [1]: without agonistic effect
CCCCN(C)C(=O)CCCCCCCCCC[C@@H]1Cc2cc(O)ccc2[C@H]2CC[C@]3(C)[C@@H](O)CC[C@H]3[C@H]12 [7 α--(CH2)10 CONMeBu derivative] | – | – | – | anti-estrogenic activity [1]: exhibit anti-estrogenic activity
CC/C(=C(\c1ccccc1)c1ccc(OCCN(C)C)cc1)c1ccccc1 [Tamoxifen] | – | – | – | estrogenic activity (agonistic effect) [1]: exhibits estrogenic activity in some organs
